{"source": "patent US9079930B2", "about": "“Substituted pyrimidines” (MERCK SHARP & DOHME CORP., priority 2011, dated 2015)"}
{"target": "T1, FLAG-tagged full length PHD2 (Homo sapiens, UniProt Q9GZT9)", "T1 construct": "FLAG-tagged full length PHD2 expressed in and purified from baculovirus-infected Sf9 cells; FLAG; made in house; host or cells: baculovirus-infected Sf9 cells", "T1 sequence (Q9GZT9 whole entry)": "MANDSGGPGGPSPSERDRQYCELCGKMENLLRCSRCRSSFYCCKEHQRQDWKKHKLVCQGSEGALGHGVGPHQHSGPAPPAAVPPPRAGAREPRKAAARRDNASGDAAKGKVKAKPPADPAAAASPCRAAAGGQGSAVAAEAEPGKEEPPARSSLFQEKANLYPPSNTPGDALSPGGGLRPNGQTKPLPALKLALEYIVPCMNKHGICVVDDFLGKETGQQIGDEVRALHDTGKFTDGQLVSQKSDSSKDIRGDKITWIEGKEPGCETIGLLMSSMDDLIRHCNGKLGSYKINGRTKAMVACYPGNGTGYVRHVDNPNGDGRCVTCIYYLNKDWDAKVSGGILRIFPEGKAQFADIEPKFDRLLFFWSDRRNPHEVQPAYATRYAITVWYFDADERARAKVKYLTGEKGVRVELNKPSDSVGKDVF", "assay": "PHD2 inhibition assay (time resolved fluorescence, HIF-1α peptide hydroxylation, VHL complex detection)", "format": "biochemical", "settings": "0.2 μM 2-oxoglutarate, 0.5 μM HIF-1α peptide", "experimental": "To each well of a 96-well plate was added 1 μL of test compound in DMSO and 20 μl of assay buffer (50 mM Tris pH 7.4/0.01% Tween-20/0.1 mg/ml bovine serum albumin/10 μM ferrous sulfate/i mM sodium ascorbate/20 μg/ml catalase) containing 0.15 μg/ml FLAG-tagged full length PHD2 expressed in and purified from baculovirus-infected Sf9 cells. After a 30 min preincubation at room temperature, the enzymatic reactions were initiated by the addition of 4 μL of substrates (final concentrations of 0.2 μM 2-oxoglutarate and 0.5 μM HIF-1α peptide biotinyl-DLDLEMLAPYIPMDDDFQL (SEQ ID NO: 1)). After 2 hr at room temperature, the reactions were terminated and signals were developed by the addition of a 25 μL quench/detection mix to a final concentration of 1 mM ortho-phenanthroline, 0.1 mM EDTA, 0.5 nM anti-(His)6 LANCE reagent (Perkin-Elmer Life Sciences), 100 nM AF647-labeled streptavidin (Invitrogen), and 2 μg/ml (His)6-VHL complex (S. Tan (2001) Protein Expr. Purif. 21, 224-234). The ratio of time resolved fluorescence signals at 665 and 620 nm was determined, and percent inhibition was calculated relative to an uninhibited control sample run in parallel.", "units": {"IC50": "nM"}}
{"compound": "CCOC(=O)C(C)NP(=O)(N[C@@H](C)C(=O)OCC)c1ccc(C(NC(=O)c2cnc(-c3ccccn3)nc2O)c2ccc(OC)cc2)cc1", "note": "(stereo in doubt) [Compound 1-1-3, (2S,2′S)-diethyl 2,2′-((4-((4-hydroxy-2-(pyridin-2-yl)pyrimidine-5-carboxamido)(4-methoxyphenyl)methyl)phenyl)phosphoryl)bis(azanediyl)dipropanoate]", "IC50": "20 to 100"}
{"compound": "COc1ccc(C(NC(=O)c2cnc(-c3cccnn3)nc2O)c2ccc([PH](=O)O)cc2)cc1", "note": "(stereo not shown) [Compound 9-2, 4-((4-hydroxy-2-(pyridazin-3-yl)pyrimidine-5-carboxamido)(4-methoxyphenyl)methyl)phenylphosphinic acid]", "IC50": "0.5 to 20"}
{"compound": "CC(NC(=O)c1cnc(-c2ccccn2)nc1O)c1ccc(P(=O)(O)O)cc1", "note": "(stereo not shown) [Compound 3-2, 4-(1-(4-hydroxy-2-(pyridin-2-yl)pyrimidine-5-carboxamido)ethyl)phenylphosphonic acid]", "IC50": "100 to 10000"}
{"compound": "CCOP(=O)(OCC)c1ccc(C(C)C(=O)Nc2cnc(-n3cccn3)nc2O)cc1", "note": "(stereo not shown) [Compound 11-1, Diethyl 4-(1-(4-hydroxy-2-(1H-pyrazol-1-yl)pyrimidin-5-ylamino)-1-oxopropan-2-yl)phenylphosphonate]", "IC50": "100 to 10000"}
{"compound": "COc1ccc(C(NC(=O)c2cnc(-c3ccccn3)nc2O)c2cccc(P(=O)(O)O)c2)cc1", "note": "(stereo not shown) [Compound 5-1, 3-((4-hydroxy-2-(pyridin-2-yl)pyrimidine-5-carboxamido)(4-methoxyphenyl)methyl)phenylphosphonic acid]", "IC50": "0.5 to 20"}
{"compound": "C[C@H](NC(=O)c1cnc(-c2ccccn2)nc1O)c1ccc(P(=O)(O)O)cc1", "note": "[Compound 3-7, (S)-4-(1-(4-hydroxy-2-(pyridin-2-yl)pyrimidine-5-carboxamido)ethyl)phenylphosphonic acid]", "IC50": "100 to 10000"}
{"compound": "CCOP(=O)(OCC)c1ccc(C(NC(=O)c2cnc(-c3ccccn3)nc2O)c2ccccc2)cn1", "note": "(stereo not shown) [Compound 4-1, Diethyl 5-((4-hydroxy-2-(pyridin-2-yl)pyrimidine-5-carboxamido)(phenyl)methyl)pyridin-2-ylphosphonate]", "IC50": "0.5 to 20"}
{"compound": "CCOP(=O)(OCC)c1ccc(C(C(=O)Nc2cnc(-n3cccn3)nc2O)C(C)C)cc1", "note": "(stereo not shown) [Compound 13-1, Diethyl 4-(1-(4-hydroxy-2-(1H-pyrazol-1-yl)pyrimidin-5-ylamino)-3-methyl-1-oxobutan-2-yl)phenylphosphonate]", "IC50": "20 to 100"}
{"compound": "CCOP(=O)(OCC)c1ccc(C(NC(=O)c2cnc(-c3cccnn3)nc2O)c2ccccc2)cc1", "note": "(stereo not shown) [Compound 8-5, Diethyl 4-((4-hydroxy-2-(pyridazin-3-yl)pyrimidine-5-carboxamido)(phenyl)methyl)phenylphosphonate]", "IC50": "0.5 to 20"}
{"compound": "COc1ccc(C(NC(=O)c2cnc(-c3cccnn3)nc2O)P(=O)(O)O)cc1", "note": "(stereo not shown) [Compound 30-2, (4-Hydroxy-2-(pyridazin-3-yl)pyrimidine-5-carboxamido)(4-methoxyphenyl)methyl phosphonic acid]", "IC50": "0.5 to 20"}
{"compound": "CP(=O)(O)c1ccc([C@@H](NC(=O)c2cnc(-n3cccn3)nc2O)c2ccccc2)cc1", "note": "[Compound 22-1, 4-((S)-(4-hydroxy-2-(1H-pyrazol-1-yl)pyrimidine-5-carboxamido)(phenyl)methyl)phenyl(methyl)phosphinic acid]", "IC50": "0.5 to 20"}
{"compound": "CCOP(C)(=O)c1ccc(C(NC(=O)c2cnc(-c3ccccn3)nc2O)c2ccccc2)cc1", "note": "(stereo not shown) [Compound 2-4, ethyl 4-((4-hydroxy-2-(pyridin-2-yl)pyrimidine-5-carboxamido)(phenyl)methyl)phenyl(methyl)phosphinate]", "IC50": "0.5 to 20"}
{"compound": "CCOP(=O)(O)c1ccc(C(NC(=O)c2cnc(-n3cccn3)nc2O)c2ccccc2)cc1", "note": "(stereo not shown) [Compound 8-2, Ethyl hydrogen 4-((4-hydroxy-2-(1H-pyrazol-1-yl)pyrimidine-5-carboxamido)(phenyl)methyl)phenylphosphonate]", "IC50": "0.5 to 20"}
{"compound": "CP(=O)(O)c1ccc([C@H](NC(=O)c2cnc(-n3cccn3)nc2O)C2CCCCC2)cc1", "note": "[Compound 26-1, 4-((R)-cyclohexyl(4-hydroxy-2-(1H-pyrazol-1-yl)pyrimidine-5-carboxamido)methyl)phenyl(methyl)phosphinic acid]", "IC50": "0.5 to 20"}
{"compound": "COc1ccc(C(NC(=O)c2cnc(-c3cccnn3)nc2O)P(=O)(O)O)cc1", "note": "(stereo not shown) [Compound 36-1, (4-Hydroxy-2-(pyridazin-3-yl)pyrimidine-5-carboxamido)(4-methoxyphenyl)methyl phosphonic acid]", "IC50": "20 to 100"}
{"compound": "CCOP(=O)(O)c1ccc(C(C)NC(=O)c2cnc(-c3ccccn3)nc2O)cc1", "note": "(stereo not shown) [Compound 3-3, Ethyl hydrogen 4-(1-(4-hydroxy-2-(pyridin-2-yl)pyrimidine-5-carboxamido)ethyl)phenylphosphonate]", "IC50": "100 to 10000"}
{"compound": "CCOC(=O)CNP(=O)(NCC(=O)OCC)c1ccc(C(NC(=O)c2cnc(-c3cccnn3)nc2O)c2ccc(OC)cc2)cc1", "note": "(stereo not shown) [Compound 31-1, Diethyl 2,2′-((4-((4-hydroxy-2-(pyridazin-3-yl)pyrimidine-5-carboxamido)(4-methoxyphenyl)methyl)phenyl)phosphoryl)bis(azanediyl)diacetate]", "IC50": "0.5 to 20"}
{"compound": "CP(=O)(O)c1ccc(C(NC(=O)c2cnc(-n3cccn3)nc2O)c2ccccc2)cc1", "note": "(stereo not shown) [Compound 8-4, 4-((4-Hydroxy-2-(1H-pyrazol-1-yl)pyrimidine-5-carboxamido)(phenyl)methyl)phenyl(methyl)phosphinic acid]", "IC50": "0.5 to 20"}
{"compound": "COc1ccc(C(NC(=O)c2cnc(-c3ccccn3)nc2O)c2ccc(P(=O)(O)O)cc2)cc1", "note": "(stereo not shown) [Compound 1-1-2, 4-((4-hydroxy-2-(pyridin-2-yl)pyrimidine-5-carboxamido)(4-methoxyphenyl)methyl)phenylphosphonic acid]", "IC50": "0.5 to 20"}
{"compound": "CCOP(=O)(OCC)c1ccc(C(C)C(=O)Nc2cnc(-c3ccccn3)nc2O)cc1", "note": "(stereo not shown) [Compound 7-1, Diethyl 4-(1-(4-hydroxy-2-(pyridin-2-yl)pyrimidin-5-ylamino)-1-oxopropan-2-yl)phenyl phosphonate]", "IC50": "100 to 10000"}
{"compound": "C[C@H](NC(=O)c1cnc(-c2cccnn2)nc1O)c1ccc(P(=O)(O)O)cc1", "note": "[Compound 3-7a, (S)-4-(1-(4-hydroxy-2-(pyridazin-3-yl)pyrimidine-5-carboxamido)ethyl)phenylphosphonic acid]", "IC50": "100 to 10000"}
{"compound": "CC(NC(=O)c1cnc(-c2cccnn2)nc1O)c1ccc(P(=O)(O)O)cc1", "note": "(stereo not shown) [Compound 3-3a, 4-(1-(4-Hydroxy-2-(pyridazin-3-yl)pyrimidine-5-carboxamido)ethyl)phenylphosphonic acid]", "IC50": "100 to 10000"}
{"compound": "COc1ccc(C(NC(=O)c2cnc(-c3ccccn3)nc2O)c2ccc([PH](=O)O)cc2)cc1", "note": "(stereo not shown) [Compound 1-1-6, 4-((4-hydroxy-2-(pyridin-2-yl)pyrimidine-5-carboxamido)(4-methoxyphenyl)methyl)phenylphosphinic acid]", "IC50": "0.5 to 20"}
{"compound": "C[C@H](NC(=O)c1cnc(-n2cccn2)nc1O)c1ccc(P(=O)(O)O)cc1", "note": "[Compound 15-3, (S)-4-(1-(4-hydroxy-2-(1H-pyrazol-1-yl)pyrimidine-5-carboxamido)ethyl)phenylphosphonic acid]", "IC50": "100 to 10000"}
{"compound": "CCOC(=O)C(C)(C)NP(=O)(NC(C)(C)C(=O)OCC)c1ccc(C(NC(=O)c2cnc(-c3ccccn3)nc2O)c2ccc(OC)cc2)cc1", "note": "(stereo not shown) [Compound 1-1-4, diethyl 2,2′-((4-((4-hydroxy-2-(pyridin-2-yl)pyrimidine-5-carboxamido)(4-methoxyphenyl)methyl)phenyl)phosphoryl)bis(azanediyl)bis(2-methylpropanoate)]", "IC50": "0.5 to 20"}
